Where two headings read alike, the source gives them in different places.
Columns and labels:
GluA1 = biological target: T1, GluA1 (Rattus norvegicus, UniProt P19490); experiment: Whole-cell patch-clamp recording of homomeric GluA1 AMPAR expressed in HEK293T cells; format: cell-based; settings: for Amplitude with compound: 10 mM glutamate + 16 µM compound, mean±SEM; for Amplitude with compound / A/AI (current amplitude ratio without/with compound) / t deact (weighted deactivation time constant) / t des (weighted desensitization time constant) / Amplitude, applying glutamate alone after compound: n=8; for A/AI (current amplitude ratio without/with compound): 10 mM glutamate; for t deact (weighted deactivation time constant): 1 ms 10 mM glutamate + 16 µM compound; for t des (weighted desensitization time constant): 500 ms 10 mM glutamate + 16 µM compound; for Amplitude, applying glutamate alone after compound: washout/recovery
T1 construct: expressed in transfected cells; host or cells: HEK293T
T1 sequence (P19490 19-907 isoform P19490-2 limits assumed): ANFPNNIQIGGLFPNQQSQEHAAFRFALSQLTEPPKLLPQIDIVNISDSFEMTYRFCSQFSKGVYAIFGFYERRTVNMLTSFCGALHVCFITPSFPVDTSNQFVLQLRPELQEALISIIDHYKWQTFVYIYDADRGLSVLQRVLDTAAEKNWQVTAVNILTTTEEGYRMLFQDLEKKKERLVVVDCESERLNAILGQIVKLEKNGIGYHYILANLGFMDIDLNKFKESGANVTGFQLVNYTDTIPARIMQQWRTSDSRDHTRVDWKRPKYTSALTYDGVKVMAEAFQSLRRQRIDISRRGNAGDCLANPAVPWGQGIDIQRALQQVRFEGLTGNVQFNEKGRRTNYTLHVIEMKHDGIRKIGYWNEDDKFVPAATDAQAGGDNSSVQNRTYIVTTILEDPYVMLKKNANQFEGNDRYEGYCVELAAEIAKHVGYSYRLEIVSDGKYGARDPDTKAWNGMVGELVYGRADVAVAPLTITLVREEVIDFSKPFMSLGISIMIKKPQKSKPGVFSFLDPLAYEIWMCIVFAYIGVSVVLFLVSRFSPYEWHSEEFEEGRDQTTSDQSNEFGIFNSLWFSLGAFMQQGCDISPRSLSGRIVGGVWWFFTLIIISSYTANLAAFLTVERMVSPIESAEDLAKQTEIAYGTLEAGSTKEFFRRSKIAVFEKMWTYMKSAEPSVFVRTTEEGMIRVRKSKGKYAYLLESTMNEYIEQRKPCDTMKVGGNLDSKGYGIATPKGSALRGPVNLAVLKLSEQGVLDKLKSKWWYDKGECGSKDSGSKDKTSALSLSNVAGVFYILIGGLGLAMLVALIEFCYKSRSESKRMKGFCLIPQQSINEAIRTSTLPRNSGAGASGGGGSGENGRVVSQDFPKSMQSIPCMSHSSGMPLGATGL
Procedure: (§1) For the DNA preparation, the QIAGEN Plasmid Mini Kit was used to prepare up to 20 µg of high-copy plasmid DNA [30]. All AMPAR subunits utilized in this study included the flip isoform received from S. F. Heinemann (Salk Institute, La Jolla, CA, USA) and sub-cloned in pRK for expression in Human Embryonic Kidney Cells 293 (HEK293T). The human embryonic kidney (HEK293T) cells were obtained from Sigma, Taufkirchen, Germany, and we only used the HEK293T cell line due to their ease of growth and transfection and wide utilization in cell culture. For the transfection, we used the constructs GluA1, GluA2, GluA2/3, and GluA1/2, along with the GFP-expressing construct, as described in our previous work. The transfection reagents utilized were jetPRIME (Polyplus: New York, NY, USA) or Lipofectamine 2000 (Invitrogen; San Diego, CA, USA). The highly fluorescent cells were identified and selected for recording. The selected cells were seeded in Dulbecco Modified Eagle Medium (DMEM) (Sigma, Roedermark, Germany) containing 10% FBS, 0.1 mg/mL streptomycin, and 1 mM sodium pyruvate (Biological Industries; Beit-Haemek, Israel). The cells were incubated at 37 °C with 5% CO2 added to the medium and subcultured twice a week until they reached passage #20. Following a day and a half, the cells were replated on coverslips covered with Laminin (1 mg/mL; Sigma, Roedermark, Germany) for electrophysiological recordings. Our previous work has detailed the DNA preparation, cDNA transient transfection, and cell culture of HEK293T [30, 31, 32, 33].
(§2) After that, a patch was placed in front of a rapid perfusion system comprised of a theta tube flow pipe mounted on a piezoelectric translator that was used to wash the cell continuously from one barrel while the other supplied the compound of interest to the cell. Recordings were conducted 36–48 h after transfection at 22 °C, with a membrane potential of −60 mV. Currents were amplified using an integrated patch amplifier (IPA, Sutter Instruments, Novato, CA, USA), filtered at 2 kHz, and digitized at 10 kHz using SutterPatch Software v. 1.1.1 [46]. […] The extracellular medium contained (in mM): 150 NaCl, 2.8 KCl, 0.5 MgCl2, 2 CaCl2, and 10 HEPES, pH 7.4 adjusted with NaOH. The holding potential was typically −60 mV. The sample size was determined to be eight viable cells to calculate the mean inhibition of the derivative of interest. The solution exchange time (10–90% to peak) was estimated at […] using open-tip control at the end of a recording. Inhibition was calculated by comparing the current observed when the cell was supplied with glutamate alone and when the same cell was supplied with both glutamate and the 2,3-BDZ compounds. The initial tube containing only glutamate was reintroduced to the cell to ensure cellular safety and authenticate the antagonist’s findings. This step ensured that the glutamate-induced current observed before the administration of the antagonist was nearly indistinguishable from the current observed after administration.
(§3) The experiment served two purposes: first, determining the whole-cell current amplitude ratio in the absence and presence of the compounds (A/AI) to derive a constant inhibitory value independent of the rate measurement. Second, as an independent control method, a fast exchange solution flow methodology was employed using piezoelectric actuators, providing the fastest exchange solution with open-tip current rise times in the 100–300 μs range to assess the amplitude of the whole-cell current. Detailed data analysis of this process is provided in the supporting information (Tables S1–S4).
(§4) The data acquired were analyzed using Igor Pro7 (Wave Metrics, Inc., Portland, OR, USA). Receptor desensitization (τw des) and deactivation rates were estimated by fitting the current decay starting from 95% of the peak to the baseline current using a double exponential formulation. […]

GluA1/2 = biological target: T2, GluA1/2 (Rattus norvegicus, UniProt P19490+P19491); experiment: Whole-cell patch-clamp recording of heteromeric GluA1/2 AMPAR expressed in HEK293T cells; format: cell-based; settings: for Amplitude with compound: 10 mM glutamate + 16 µM compound, mean±SEM; for Amplitude with compound / A/AI (current amplitude ratio without/with compound) / t deact (weighted deactivation time constant) / t des (weighted desensitization time constant) / Amplitude, applying glutamate alone after compound: n=8; for A/AI (current amplitude ratio without/with compound): 10 mM glutamate; for t deact (weighted deactivation time constant): 1 ms 10 mM glutamate + 16 µM compound; for t des (weighted desensitization time constant): 500 ms 10 mM glutamate + 16 µM compound; for Amplitude, applying glutamate alone after compound: washout/recovery
T2 construct: expressed in transfected cells; host or cells: HEK293T
T2 sequence (P19490 19-907 isoform P19490-2 limits assumed): as above
T2 sequence (P19491 22-883 isoform P19491-2 limits assumed): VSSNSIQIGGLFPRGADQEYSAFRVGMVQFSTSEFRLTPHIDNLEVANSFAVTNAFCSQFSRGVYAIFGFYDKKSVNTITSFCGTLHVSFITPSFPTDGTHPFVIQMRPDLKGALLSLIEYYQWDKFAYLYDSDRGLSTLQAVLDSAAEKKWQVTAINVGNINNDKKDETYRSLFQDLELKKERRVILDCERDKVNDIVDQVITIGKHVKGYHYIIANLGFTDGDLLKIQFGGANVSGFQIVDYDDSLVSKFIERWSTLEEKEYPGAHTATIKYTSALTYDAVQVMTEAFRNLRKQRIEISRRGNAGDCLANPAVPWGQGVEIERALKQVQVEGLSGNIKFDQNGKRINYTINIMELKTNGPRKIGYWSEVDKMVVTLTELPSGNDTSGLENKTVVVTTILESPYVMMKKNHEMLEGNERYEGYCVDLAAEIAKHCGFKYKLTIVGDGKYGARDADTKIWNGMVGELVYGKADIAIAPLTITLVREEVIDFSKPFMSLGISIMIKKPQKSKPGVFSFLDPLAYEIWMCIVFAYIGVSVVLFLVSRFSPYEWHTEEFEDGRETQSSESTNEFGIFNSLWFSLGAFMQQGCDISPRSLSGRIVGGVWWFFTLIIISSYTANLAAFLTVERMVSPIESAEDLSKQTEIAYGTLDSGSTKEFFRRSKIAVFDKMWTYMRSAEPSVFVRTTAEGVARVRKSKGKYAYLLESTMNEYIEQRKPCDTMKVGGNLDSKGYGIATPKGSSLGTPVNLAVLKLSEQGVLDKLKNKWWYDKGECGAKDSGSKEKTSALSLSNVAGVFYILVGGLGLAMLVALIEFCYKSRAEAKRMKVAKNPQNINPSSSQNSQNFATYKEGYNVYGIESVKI
Procedure: as §1, §2, §3, §4

GluA2 = biological target: T3, GluA2 (Rattus norvegicus, UniProt P19491); experiment: Whole-cell patch-clamp recording of homomeric GluA2 AMPAR expressed in HEK293T cells; format: cell-based; settings: for Amplitude with compound: 10 mM glutamate + 16 µM compound, mean±SEM; for A/AI (current amplitude ratio without/with compound): 10 mM glutamate; for t deact (weighted deactivation time constant): 1 ms 10 mM glutamate + 16 µM compound; for t des (weighted desensitization time constant): 500 ms 10 mM glutamate + 16 µM compound
T3 construct: expressed in transfected cells; host or cells: HEK293T
T3 sequence (P19491 22-883 isoform P19491-2 limits assumed): as above
Procedure: as §1, §2, §3, §4

GluA2/3 = biological target: T4, GluA2/3 (Rattus norvegicus, UniProt P19491+P19492); experiment: Whole-cell patch-clamp recording of heteromeric GluA2/3 AMPAR expressed in HEK293T cells; format: cell-based; settings: for Amplitude with compound: 10 mM glutamate + 16 µM compound, mean±SEM; for Amplitude with compound / A/AI (current amplitude ratio without/with compound) / t deact (weighted deactivation time constant) / t des (weighted desensitization time constant) / Amplitude, applying glutamate alone after compound: n=8; for A/AI (current amplitude ratio without/with compound): 10 mM glutamate; for t deact (weighted deactivation time constant): 1 ms 10 mM glutamate + 16 µM compound; for t des (weighted desensitization time constant): 500 ms 10 mM glutamate + 16 µM compound; for Amplitude, applying glutamate alone after compound: washout/recovery
T4 construct: expressed in transfected cells; host or cells: HEK293T
T4 sequence (P19491 22-883 isoform P19491-2 limits assumed): as above
T4 sequence (P19492 23-888 isoform P19492-2 limits assumed): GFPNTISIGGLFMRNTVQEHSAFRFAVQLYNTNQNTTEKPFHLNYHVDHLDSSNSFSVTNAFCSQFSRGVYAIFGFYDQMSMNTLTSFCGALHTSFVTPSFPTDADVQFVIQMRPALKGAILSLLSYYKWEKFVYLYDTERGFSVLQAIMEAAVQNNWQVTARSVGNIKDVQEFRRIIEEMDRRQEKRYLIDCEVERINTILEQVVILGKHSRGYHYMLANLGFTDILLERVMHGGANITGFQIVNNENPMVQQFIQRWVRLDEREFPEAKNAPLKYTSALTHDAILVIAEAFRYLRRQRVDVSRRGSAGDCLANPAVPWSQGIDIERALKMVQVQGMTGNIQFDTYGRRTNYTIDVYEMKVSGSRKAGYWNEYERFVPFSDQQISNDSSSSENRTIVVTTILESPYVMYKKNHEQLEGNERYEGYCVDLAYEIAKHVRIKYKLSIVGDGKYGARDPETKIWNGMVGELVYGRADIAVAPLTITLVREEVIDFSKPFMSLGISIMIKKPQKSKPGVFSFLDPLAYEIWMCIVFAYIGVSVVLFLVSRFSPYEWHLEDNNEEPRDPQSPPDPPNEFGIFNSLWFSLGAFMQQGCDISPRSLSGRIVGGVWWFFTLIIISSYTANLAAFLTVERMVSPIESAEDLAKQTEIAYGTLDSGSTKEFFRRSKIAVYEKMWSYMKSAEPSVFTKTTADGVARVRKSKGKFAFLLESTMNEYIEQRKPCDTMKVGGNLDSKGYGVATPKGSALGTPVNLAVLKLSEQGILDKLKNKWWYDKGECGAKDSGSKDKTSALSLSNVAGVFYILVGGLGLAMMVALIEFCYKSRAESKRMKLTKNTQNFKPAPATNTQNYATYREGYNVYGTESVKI
Procedure: as §1, §2, §3, §4

AMPA receptor subunits = experiment: Whole-cell patch-clamp recording, statements over all tested AMPAR subunits (GluA1, GluA1/2, GluA2, GluA2/3) in HEK293T cells; format: cell-based; settings: 16 µM compound; for Effect on deactivation rate of the AMPAR subunits examined: 1 ms glutamate
Procedure: as §1, §2, §3, §4

[1] = Solubility observation during synthesis/characterisation; format: physicochemical; settings: qualitative, NMR in DMSO-d6 could not be run
Procedure: The synthesis of target compounds is carried out according to the sequence of reactions detailed in Scheme 1. SnCl4-catalyzed Friedel-Craft acylation of ethyl 3,4-methylenedioxy phenylacetate 1 with either 2-fluoro-4-nitrobezoylchloride 2a or 3-methoxy-4-nitrobenzoyl chloride 2b in dry CH2Cl2 yields the required ketoester intermediates 3a and 3b in 40% and 48% yields, respectively. […] Acetic acid promoted a cascade reaction (imine formation followed by cyclization) of ethyl 4,5-(methylenedioxy)-2-[…] with hydrazine hydrate in ethanol afforded 2,3-BZD-4 in a 33% yield. High yield and purity of 2,3-BZD-1 were achieved via Pd-catalyzed hydrogenation of the nitro group in 2,3-BZD-4 in methanol. The generated compounds have physical and spectral (1H-NMR) data consistent with their proposed structures.
5% Pd/C (50 mg) was added to a solution containing 1-(2-floro-4-nitrophenyl)-7,8-(methylenedioxy)-3,5-dihydro-4H-2,3-benzodiazepin-4-one (2,3-BDZ-3) (64.80 mg, 0.19 mmol) in methanol (5 mL) and formic acid (2 mL). After 48 h of stirring at ambient temperature in a hydrogen atmosphere, the Pd/C was filtered out, and the solvent was removed under pressure. The resultant residue was washed with methanol and then with diethyl ether. […]

[2] = 16 µM compound, 500 ms glutamate
[3] = log of IC50, read-out: Log IC50 (converted)
[4] = normalized peak current, -60 mV, pH 7.4, 22 °C, read-out: IC50

In the case of Nc1ccc(C2=NNC(=O)Cc3cc4c(cc32)OCO4)c(F)c1 [2,3-BDZ-1, 1-(4-Amino-2-fluorophenyl)-7,8-(methylenedioxy)-3,5-dihydro-4H-2,3-benzodiazepin-4-one], the “Reduction of desensitization rate” value (GluA1; [2]) is reported as roughly 2 fold, the Amplitude with compound (GluA1; -60 mV, pH 7.4, 22 °C) is reported as 85±7.0 pA and the “A/AI (current amplitude ratio without/with compound)” value (GluA1; 16 µM compound) is reported as 11.08±1.0. For the same compound, the “t deact (weighted deactivation time constant)” value (shortened to “t deact”) (GluA1) was 6.3 ± 0.4 ms, the “t des (weighted desensitization time constant)” value (from here on “t des”) (GluA1) was 1.1 ± 0.1 ms and the IC50 (GluA1; [3]) was 3.24 µM. For the same compound, the IC50 (GluA1; [4]) was 3.26 µM, the “Amplitude, applying glutamate alone after compound” value (from here on “Amplitude, applying glutamate alone”) (GluA1) was 935±39 pA and the “Reduction of desensitization rate” value (GluA1/2; [2]) was roughly 2 fold. The Amplitude with compound (GluA1/2; -60 mV, pH 7.4, 22 °C) was 51±7.0 pA, the “A/AI (current amplitude ratio without/with compound)” value (GluA1/2; 16 µM compound) was 11.21±1.0 and the “t deact” value (GluA1/2) was 6.7 ± 0.6 ms. For the same compound, the “t des” value (GluA1/2) was 2.7 ± 0.2 ms, the IC50 (GluA1/2; [3]) was 3.02 µM and the IC50 (GluA1/2; [4]) was 3.05 µM. For the same compound, the “Amplitude, applying glutamate alone” value (GluA1/2) was 575±35 pA, the “Reduction of desensitization rate” value (GluA2; [2]) was 4–5 fold and the Amplitude with compound (GluA2; -60 mV, pH 7.4, 22 °C, n=8) was 108±9.0 pA. For the same compound, the “A/AI (current amplitude ratio without/with compound)” value (GluA2; 16 µM compound, n=8) was 12.31±1.0, the “t deact” value (GluA2; n=8) was 8.7 ± 0.6 ms and the “t des” value (GluA2; n=8) was 0.6 ± 0.05 ms. For the same compound, the IC50 (GluA2; [3]) was 3.02 µM, the IC50 (GluA2; [4]) was 3.02 µM and the “Amplitude, applying glutamate alone” value (GluA2; washout/recovery, glutamate alone after compound, n=8) was 1322±33 pA. For the same compound, the “Reduction of desensitization rate” value (GluA2/3; [2]) was 3–4 fold, the Amplitude with compound (GluA2/3; -60 mV, pH 7.4, 22 °C) was 49±4 pA and the “A/AI (current amplitude ratio without/with compound)” value (GluA2/3; 16 µM compound) was 12.09±1.0. The “t deact” value (GluA2/3) was 8.1 ± 0.7 ms, the “t des” value (GluA2/3) was 0.8 ± 0.08 ms and the IC50 (GluA2/3; [3]) was 3.09 µM. The IC50 (GluA2/3; [4]) was 3.09 µM, the “Amplitude, applying glutamate alone” value (GluA2/3) was 589±33 pA and the “Reduction in AMPAR subunit currents” value (AMPA receptor subunits) was 11–12 fold. The “Effect on deactivation rate of the AMPAR subunits examined” value (AMPA receptor subunits) was “almost triples”, the “Solubility (observation)” value [1] was “low solubility” and the “Solubility (observation)” value ([1]; listed as 2,3-BZD-1) was “highly insoluble”.
With O=C1Cc2cc3c(cc2C(c2ccc([N+](=O)[O-])cc2F)=NN1)OCO3 [2,3-BDZ-3] the Amplitude with compound (GluA1; -60 mV, pH 7.4, 22 °C) was 237±12 pA, the “A/AI (current amplitude ratio without/with compound)” value (GluA1; 16 µM compound) was 3.94±0.2 and the “t deact” value (GluA1) was 2.4 ± 0.1 ms. For the same compound, the “t des” value (GluA1) was 2.1 ± 0.1 ms, the IC50 (GluA1; [3]) was 5.75 µM and the IC50 (GluA1; [4]) was 5.8 µM. The “Amplitude, applying glutamate alone” value (GluA1) was 936±46 pA, the Amplitude with compound (GluA1/2; -60 mV, pH 7.4, 22 °C) was 144±11 pA and the “A/AI (current amplitude ratio without/with compound)” value (GluA1/2; 16 µM compound) was 3.98±0.2. The “t deact” value (GluA1/2) was 2.8 ± 0.2 ms, the “t des” value (GluA1/2) was 4.9 ± 0.3 ms and the IC50 (GluA1/2; [3]) was 5.75 µM. The IC50 (GluA1/2; [4]) was 5.79 µM, the “Amplitude, applying glutamate alone” value (GluA1/2) was 569±43 pA and the Amplitude with compound (GluA2; -60 mV, pH 7.4, 22 °C, n=8) was 326±17 pA. For the same compound, the “A/AI (current amplitude ratio without/with compound)” value (GluA2; 16 µM compound, n=8) was 4.16±0.2, the “t deact” value (GluA2; n=8) was 2.8 ± 0.1 ms and the “t des” value (GluA2; n=8) was 2.3 ± 0.1 ms. For the same compound, the IC50 (GluA2; [3]) was 5.75 µM, the IC50 (GluA2; [4]) was 5.74 µM and the Amplitude with compound (GluA2/3; -60 mV, pH 7.4, 22 °C) was 130±12 pA. For the same compound, the “A/AI (current amplitude ratio without/with compound)” value (GluA2/3; 16 µM compound) was 4.08±0.3, the “t deact” value (GluA2/3) was 2.9 ± 0.2 ms and the “t des” value (GluA2/3) was 2.5 ± 0.2 ms. The IC50 (GluA2/3; [3]) was 5.75 µM, the IC50 (GluA2/3; [4]) was 5.76 µM and the “Amplitude, applying glutamate alone” value (GluA2/3) was 525±22 pA. For the same compound, the “Effect on desensitization rate” value (AMPA receptor subunits) was “no change”, the “Reduction in AMPAR subunit currents” value (AMPA receptor subunits) was 4 fold and the “Effect on deactivation rate of the AMPAR subunits examined” value (AMPA receptor subunits) was “no change”. For the same compound, the melting point was 182 to 184 °C.
